Reference: article PMC8508710, “Biochemical Characterization of 13-Lipoxygenases of Arabidopsis thaliana” (International Journal of Molecular Sciences, 2021)

Experiments:
Format in all cases: biochemical
Parameters in all cases: made in house; host or cells: E. coli Nico21(DE3), pET15b
LOX2 = target: T1, LOX2 (Arabidopsis thaliana, UniProt P38418); assay: LOX2 activity, oxygen electrode (polarography); details: for activity at 280 µM: enzyme incubated with 280 µM chemical (1/10 vol of 2.8 mM), injected into 30 µM LeA, 50 mM Tris-HCl pH 7.2, vs solvent control, read-out: Polarography Relative Activity (%) LOX2; for Increase of LOX2 activity in comparison to control: 1 mM cation, LeA 30 µM, pH 8.0; for Relative Activity (%) LOX2: 1 mM metal salt, LeA 30 µM in 20 mM HEPES pH 8.0, oxygen consumption vs control without metal
T1 sequence (P38418 71-896): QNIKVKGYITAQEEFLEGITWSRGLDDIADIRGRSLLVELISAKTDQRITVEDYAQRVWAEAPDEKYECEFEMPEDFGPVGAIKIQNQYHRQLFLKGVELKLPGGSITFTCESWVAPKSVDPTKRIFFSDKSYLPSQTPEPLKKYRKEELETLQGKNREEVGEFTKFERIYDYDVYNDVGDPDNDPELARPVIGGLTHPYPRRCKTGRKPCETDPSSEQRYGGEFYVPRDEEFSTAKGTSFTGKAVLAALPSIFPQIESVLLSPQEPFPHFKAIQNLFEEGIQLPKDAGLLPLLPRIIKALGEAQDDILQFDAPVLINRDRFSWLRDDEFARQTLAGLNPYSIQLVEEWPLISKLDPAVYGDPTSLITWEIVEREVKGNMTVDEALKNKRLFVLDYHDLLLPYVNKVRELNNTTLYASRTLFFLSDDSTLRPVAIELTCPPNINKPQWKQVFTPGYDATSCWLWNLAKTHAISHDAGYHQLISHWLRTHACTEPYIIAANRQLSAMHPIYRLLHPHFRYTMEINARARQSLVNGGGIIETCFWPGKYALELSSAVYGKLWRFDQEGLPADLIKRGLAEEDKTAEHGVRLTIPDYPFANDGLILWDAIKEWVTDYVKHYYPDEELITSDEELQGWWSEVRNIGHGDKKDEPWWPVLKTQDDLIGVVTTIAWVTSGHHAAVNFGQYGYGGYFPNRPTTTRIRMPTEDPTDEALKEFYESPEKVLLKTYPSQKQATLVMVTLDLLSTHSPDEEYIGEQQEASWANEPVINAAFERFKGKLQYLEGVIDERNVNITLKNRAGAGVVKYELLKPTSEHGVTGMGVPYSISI

LOX4 = target: T2, LOX4 (Arabidopsis thaliana, UniProt Q9FNX8); assay: LOX4 activity, oxygen electrode (polarography); details: for Relative Activity (%) LOX4: 1 mM metal salt, LeA 30 µM in 20 mM HEPES pH 8.0, oxygen consumption vs control without metal
T2 sequence (Q9FNX8 71-926): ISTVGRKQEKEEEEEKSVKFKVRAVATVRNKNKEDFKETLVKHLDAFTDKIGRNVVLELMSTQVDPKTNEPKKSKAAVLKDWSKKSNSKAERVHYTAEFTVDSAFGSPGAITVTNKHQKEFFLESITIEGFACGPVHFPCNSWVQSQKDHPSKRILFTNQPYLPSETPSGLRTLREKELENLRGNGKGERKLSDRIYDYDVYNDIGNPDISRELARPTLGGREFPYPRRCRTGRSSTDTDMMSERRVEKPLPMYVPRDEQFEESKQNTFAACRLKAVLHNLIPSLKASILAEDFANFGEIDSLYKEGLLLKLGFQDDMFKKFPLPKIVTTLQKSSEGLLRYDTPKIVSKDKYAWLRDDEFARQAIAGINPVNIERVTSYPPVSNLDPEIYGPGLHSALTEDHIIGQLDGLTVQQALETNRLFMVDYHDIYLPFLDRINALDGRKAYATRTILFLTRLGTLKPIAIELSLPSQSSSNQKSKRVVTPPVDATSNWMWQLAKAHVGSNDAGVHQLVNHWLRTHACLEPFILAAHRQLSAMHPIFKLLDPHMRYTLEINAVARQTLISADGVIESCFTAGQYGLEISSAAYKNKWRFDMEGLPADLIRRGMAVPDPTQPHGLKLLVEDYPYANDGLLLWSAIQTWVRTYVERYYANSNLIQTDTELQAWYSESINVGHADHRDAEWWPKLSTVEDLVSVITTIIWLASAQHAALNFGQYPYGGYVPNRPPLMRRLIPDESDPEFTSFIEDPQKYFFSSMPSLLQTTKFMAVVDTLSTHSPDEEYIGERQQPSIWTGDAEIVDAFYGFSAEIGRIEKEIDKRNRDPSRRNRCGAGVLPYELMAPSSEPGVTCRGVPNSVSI

LOX3 = target: T3, LOX3 (Arabidopsis thaliana, UniProt Q9LNR3); assay: LOX3 activity, oxygen electrode (polarography); details: for Relative Activity (%) LOX3: 1 mM metal salt, LeA 30 µM in 20 mM HEPES pH 8.0, oxygen consumption vs control without metal
T3 sequence (Q9LNR3 71-919): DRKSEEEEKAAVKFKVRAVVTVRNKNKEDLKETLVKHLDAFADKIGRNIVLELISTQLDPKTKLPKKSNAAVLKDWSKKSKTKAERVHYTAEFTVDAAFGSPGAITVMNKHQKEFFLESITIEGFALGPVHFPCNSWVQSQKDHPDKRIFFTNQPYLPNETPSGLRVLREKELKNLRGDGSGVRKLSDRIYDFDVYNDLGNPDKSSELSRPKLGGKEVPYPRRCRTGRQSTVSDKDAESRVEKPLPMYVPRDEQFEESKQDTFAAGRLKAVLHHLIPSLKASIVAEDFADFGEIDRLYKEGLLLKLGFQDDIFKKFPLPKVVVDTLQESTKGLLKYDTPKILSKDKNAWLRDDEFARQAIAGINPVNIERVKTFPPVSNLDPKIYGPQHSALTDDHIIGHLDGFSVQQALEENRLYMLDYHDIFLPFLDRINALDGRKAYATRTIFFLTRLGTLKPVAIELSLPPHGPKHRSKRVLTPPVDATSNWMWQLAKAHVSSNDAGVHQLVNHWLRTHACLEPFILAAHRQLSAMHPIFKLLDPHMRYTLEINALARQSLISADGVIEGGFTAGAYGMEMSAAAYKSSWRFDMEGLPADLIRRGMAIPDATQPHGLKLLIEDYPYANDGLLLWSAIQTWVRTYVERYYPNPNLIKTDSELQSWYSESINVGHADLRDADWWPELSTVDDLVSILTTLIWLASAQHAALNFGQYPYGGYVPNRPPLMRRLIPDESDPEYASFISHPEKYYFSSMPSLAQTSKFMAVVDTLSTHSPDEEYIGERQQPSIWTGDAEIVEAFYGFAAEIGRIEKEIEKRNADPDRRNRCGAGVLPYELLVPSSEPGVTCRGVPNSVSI

[1] = 12.2 µg LOX4 + 1.3 mM GSH prior to 140 µM 12-OPDA
[2] = doubled LOX4 concentration + 1.3 mM GSH + 140 µM 12-OPDA

Row | Structure (SMILES) | activity at 280 µM (LOX2) [%] | Relative Activity (%) LOX3 (LOX3) | Relative Activity (%) LOX2 (LOX2) [%] | Relative Activity (%) LOX4 (LOX4) | further results
1 | CCC=CCC1C(=O)C=CC1CCCCCCCC(=O)O (stereo not drawn) [12-OPDA, cis-(+)-12-oxophytodienoic acid] | 64 ± 4 |  |  |  | Residual LOX4 activity (LOX4; 12.2 µg LOX4 + 140 µM 12-OPDA alone): 29.6%; Oxygen consumption (residual LOX4 activity) (LOX4; 12.2 µg LOX4 + 140 µM 12-OPDA alone, control 9.8 ± 0.1): 2.9 ± 0.1 nmol/mL/min; Oxygen consumption (residual LOX4 activity) (LOX4; [1]): 3.6 ± 0.1 nmol/mL/min; Residual LOX4 activity (LOX4; [1]): 36.7%; Residual LOX4 activity (LOX4; doubled LOX4 concentration + 140 µM 12-OPDA): 34%; Oxygen consumption (residual LOX4 activity) (LOX4; doubled LOX4 concentration + 140 µM 12-OPDA, control 19.7 ± 0.1): 6.7 ± 0.1 nmol/mL/min; Oxygen consumption (residual LOX4 activity) (LOX4; [2]): 9.0 ± 0.1 nmol/mL/min; Residual LOX4 activity (LOX4; [2]): 45.7%; Oxygen consumption (residual LOX4 activity) (LOX4; doubled LOX4 concentration + 2.6 mM GSH + 140 µM 12-OPDA): 8.5 ± 0.6 nmol/mL/min
2 | [Ca+2].[Cl-].[Cl-] [CaCl2] |  | 117 ± 10% | 690 ± 60 | 100 ± 4% | Increase of LOX2 activity in comparison to control (LOX2): 590%
3 | O=S(=O)([O-])[O-].[Cd+2] [CdSO4] |  | no activity | 220 ± 18 | no activity | 
4 | CC/C=C\CC1C(=O)CCC1CC(=O)OC (centres unmarked) [MJ, methyl jasmonate] | 87 ± 10 |  |  |  | 
5 | [Cl-].[Cl-].[Mg+2] [MgCl2] |  | 135 ± 4% | 170 ± 18 | 106 ± 3% | Increase of LOX3 activity in comparison to control (LOX3; 1 mM cation, LeA 30 µM, pH 8.0): 35%; Increase of LOX2 activity in comparison to control (LOX2): 70%; Increase of LOX4 activity in comparison to control (LOX4; 1 mM cation, LeA 30 µM, pH 8.0): 6%
6 | O=C(O)c1ccccc1O [SA, salicylic acid] | 96 ± 7 |  |  |  | 
7 | O=C(O)/C=C/CCCCCCCCC(=O)O [TA, traumatic acid] | 95 ± 8 |  |  |  | 
